Patent US12570655B2, “Cysteine covalent modifiers of AKT1 and uses thereof” (Terremoto Biosciences, Inc., priority 2023, dated 2026)
Read-outs that look alike come from different tables or passages of the source.

What was measured:
Format in all cases: cell-based
AKT2 = biological target: T1, AKT2 (Homo sapiens, UniProt P31751); experiment: Live cell AKT2 target engagement by NanoBRET competitive probe displacement; details: HEK293 cells transfected with kinase-NanoLuciferase fusion, 2 h at 37° C.
T1 construct: expressed in transfected cells; host or cells: HEK293
T1 sequence (P31751 whole entry, the tested form may be a part): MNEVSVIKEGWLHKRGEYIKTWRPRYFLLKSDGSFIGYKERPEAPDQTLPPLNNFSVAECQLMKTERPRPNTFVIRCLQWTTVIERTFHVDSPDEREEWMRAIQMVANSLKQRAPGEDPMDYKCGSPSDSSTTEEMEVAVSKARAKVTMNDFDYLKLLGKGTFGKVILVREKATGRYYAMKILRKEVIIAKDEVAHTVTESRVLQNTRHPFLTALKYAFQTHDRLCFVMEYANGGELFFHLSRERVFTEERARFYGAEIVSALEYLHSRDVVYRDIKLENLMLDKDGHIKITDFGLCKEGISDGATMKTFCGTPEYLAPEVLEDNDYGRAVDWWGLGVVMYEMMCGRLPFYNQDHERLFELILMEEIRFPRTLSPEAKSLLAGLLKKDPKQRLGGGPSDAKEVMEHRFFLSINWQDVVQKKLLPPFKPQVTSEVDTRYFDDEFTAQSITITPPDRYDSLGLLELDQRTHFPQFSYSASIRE
Outline: (§1)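 IC50 reflects displacement of a fluorescent ATP-competitive tracer, dosed near its EC50, from kinase–NanoLuciferase fusions in live HEK293 cells. Cells were incubated with compound and tracer for 2 h at 37 °C, then E600/E460 BRET was read.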

AKT1 E17K = biological target: T2, AKT1 E17K (Homo sapiens, UniProt P31749, E17K); experiment: Live cell AKT1 E17K target engagement by NanoBRET competitive probe displacement; details: HEK293 cells transfected with kinase-NanoLuciferase fusion, 2 h at 37° C.
T2 construct: expressed in transfected cells; host or cells: HEK293
T2 sequence (P31749 whole entry E17K, the tested form may be a part): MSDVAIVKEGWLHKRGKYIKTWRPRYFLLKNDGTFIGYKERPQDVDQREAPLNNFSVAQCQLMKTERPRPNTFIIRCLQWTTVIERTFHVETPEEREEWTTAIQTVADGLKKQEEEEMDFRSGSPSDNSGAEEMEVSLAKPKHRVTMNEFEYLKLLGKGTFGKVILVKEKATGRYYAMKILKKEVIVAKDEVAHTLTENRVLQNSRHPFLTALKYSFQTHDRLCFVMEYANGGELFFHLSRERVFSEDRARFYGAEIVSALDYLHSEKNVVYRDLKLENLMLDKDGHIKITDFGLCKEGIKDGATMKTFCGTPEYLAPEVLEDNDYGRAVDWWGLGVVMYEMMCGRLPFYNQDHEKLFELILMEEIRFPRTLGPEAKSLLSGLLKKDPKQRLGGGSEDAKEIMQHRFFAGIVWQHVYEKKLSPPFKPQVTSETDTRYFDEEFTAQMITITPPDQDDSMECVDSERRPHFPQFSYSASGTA
Outline: as §1

AKT1 WT = biological target: T3, AKT1 WT (Homo sapiens, UniProt P31749); experiment: Live cell AKT1 WT target engagement by NanoBRET competitive probe displacement; details: HEK293 cells transfected with kinase-NanoLuciferase fusion, 2 h at 37° C.
T3 construct: expressed in transfected cells; host or cells: HEK293
T3 sequence (P31749 whole entry, the tested form may be a part): as the sequence (P31749 whole entry E17K, the tested form may be a part) above, with K17E counted along it
Outline: as §1

[1] = tested on: LAPC4 prostate cancer cells; experiment: Antiproliferative effects in LAPC4 cells (CellTiter Glo); details: LAPC4 cells (AKT1 E17K allele), read-out: LAPC4 proliferation IC50
Outline: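 Seed 1,000 cells/well in IMDM/12% FBS/1% P/S; add compound dilutions (DMSO); incubate 72 h; read intracellular ATP with CellTiter Glo; fit luminescence to log(inhibitor)-response Hill curve for IC50.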

Row | IC50 (AKT2) [nM] | IC50 (AKT1 E17K) [nM] | IC50 (AKT1 WT) [nM] | IC50 ([1]; Homo sapiens, LAPC4, 72 h) [nM] | IC50 ([1]; 72 h) [nM] | SMILES
1 | > 10000 | > 1000 | 317 | > 10000 | – | C=CC(=O)Nc1cc(C(F)F)ccc1C(=O)N[C@H]1CCc2cc(-n3c(-c4cccnc4N)nc4ccc(-n5cccn5)nc43)ccc21 [Example 43, (S)-2-acrylamido-N-(5-(2-(2-aminopyridin-3-yl)-5-(1H-pyrazol-1-yl)-3H-imidazo[4,5-b]pyridin-3-yl)-2,3-dihydro-1H-inden-1-yl)-4-(difluoromethyl)benzamide]
2 | 62.3 | 11.8 | 307 | 300 | – | C=CC(=O)N1CCC(N[C@H]2CCc3cc(-n4c(-c5cccnc5N)nc5ccc(-n6cccn6)nc54)ccc32)C(C)(F)C1 (stereo partly drawn) [Example 308, 1-((3*)-4-(((S)-5-(2-(2-aminopyridin-3-yl)-5-(1H-pyrazol-1-yl)-3H-imidazo[4,5-b]pyridin-3-yl)-2,3-dihydro-1H-inden-1-yl)amino)-3-fluoro-3-methylpiperidin-1-yl)prop-2-en-1-one]
3 | 17.6 | 8.06 | 9.52 | – | 11.8 | C#CC1CC(N[C@H]2CCc3cc(-n4c(-c5cccnc5N)nc5ccc(-n6cccn6)nc54)ccc32)CCN1C(=O)C=C (single isomer, unassigned) [Example 112, 1-((2*,4*)-4-(((S)-5-(2-(2-aminopyridin-3-yl)-5-(1H-pyrazol-1-yl)-3H-imidazo[4,5-b]pyridin-3-yl)-2,3-dihydro-1H-inden-1-yl)amino)-2-ethynylpiperidin-1-yl)prop-2-en-1-one]
4 | 25.9 | 7.03 | 4.29 | 650 | – | C=CC(=O)Nc1cc(C(=O)N[C@H]2CCc3cc(-n4c(-c5cccnc5N)nc5ccc(-n6cccn6)nc54)ccc32)ccn1 [Example 11, (S)-2-acrylamido-N-(5-(2-(2-aminopyridin-3-yl)-5-(1H-pyrazol-1-yl)-3H-imidazo[4,5-b]pyridin-3-yl)-2,3-dihydro-1H-inden-1-yl)isonicotinamide]
5 | 717 | 68.4 | 43 | 296 | – | NC(=O)/C=C/c1ncccc1C(=O)N[C@H]1CCc2cc(-n3c(-c4cccnc4N)nc4ccc(-n5cccn5)nc43)ccc21 [Example 45, N-[(1S)-5-[2-(2-aminopyridin-3-yl)-5-(pyrazol-1-yl)imidazo[4,5-b]pyridin-3-yl]-2,3-dihydro-1H-inden-1-yl]-2-[(1E)-2-carbamoyleth-1-en-1-yl]pyridine-3-carboxamide]
6 | 780 | 482 | 41.6 | – | 557 | C=CC(=O)N1CCC(N[C@H]2CCc3cc(-n4c(-c5cccnc5N)nc5ccc(-n6cccn6)nc54)ccc32)C(OC)C1 (single isomer, unassigned) [Example 117, 1-((3*,4*)-4-(((S)-5-(2-(2-aminopyridin-3-yl)-5-(1H-pyrazol-1-yl)-3H-imidazo[4,5-b]pyridin-3-yl)-2,3-dihydro-1H-inden-1-yl)amino)-3-methoxypiperidin-1-yl)prop-2-en-1-one]
7 | 171 | 27.8 | 937 | 1330 | – | C=C(F)C(=O)NCc1ccccc1C(=O)N[C@H]1CCc2cc(-n3c(-c4cccnc4N)nc4ccc(-n5cccn5)nc43)ccc21 [Example 264, N-[(1S)-5-[2-(2-aminopyridin-3-yl)-5-(pyrazol-1-yl)imidazo[4,5-b]pyridin-3-yl]-2,3-dihydro-1H-inden-1-yl]-2-[(2-fluoroprop-2-enamido)methyl]benzamide]
8 | 1120 | 215 | 93.7 | – | 617 | C=CC(=O)N1CCC(N[C@H]2CCc3cc(-n4c(-c5cccnc5N)nc5ccc(-n6cccn6)nc54)ccc32)C(F)(F)C1 (single isomer, unassigned) [Example 55, 1-((*)-4-(((S)-5-(2-(2-aminopyridin-3-yl)-5-(1H-pyrazol-1-yl)-3H-imidazo[4,5-b]pyridin-3-yl)-2,3-dihydro-1H-inden-1-yl)amino)-3,3-difluoropiperidin-1-yl)prop-2-en-1-one]
9 | 21.9 | 8.34 | 8.56 | – | 12.5 | C#CC1CC(N[C@H]2CCc3cc(-n4c(-c5cccnc5N)nc5ccc(-n6cccn6)nc54)ccc32)CCN1C(=O)C=C (single isomer, unassigned) [Example 114, 1-((2*,4*)-4-(((S)-5-(2-(2-aminopyridin-3-yl)-5-(1H-pyrazol-1-yl)-3H-imidazo[4,5-b]pyridin-3-yl)-2,3-dihydro-1H-inden-1-yl)amino)-2-ethynylpiperidin-1-yl)prop-2-en-1-one]
10 | 198 | 110 | 18.3 | 100 | – | C=CC(=O)N1CCC(N(CC2COC2)[C@H]2CCc3cc(-n4c(-c5cccnc5N)nc5ccc(-n6cccn6)nc54)ccc32)CC1 [Example 161, 1-(4-{[(1S)-5-[2-(2-aminopyridin-3-yl)-5-(pyrazol-1-yl)imidazo[4,5-b]pyridin-3-yl]-2,3-dihydro-1H-inden-1-yl](oxetan-3-ylmethyl)amino}piperidin-1-yl)prop-2-en-1-one]
11 | 982 | 179 | 64.5 | 533 | – | C=C(F)C(=O)Nc1cn(C)nc1C(=O)N[C@H]1CCc2cc(-n3c(-c4cccnc4N)nc4ccc(-n5cccn5)nc43)ccc21 [Example 36, (S)-N-(5-(2-(2-aminopyridin-3-yl)-5-(1H-pyrazol-1-yl)-3H-imidazo[4,5-b]pyridin-3-yl)-2,3-dihydro-1H-inden-1-yl)-4-(2-fluoroacrylamido)-1-methyl-1H-pyrazole-3-carboxamide]
12 | 1910 | 642 | 71.7 | – | 879 | C=CC(=O)N1CCC(N[C@@H]2c3ccc(-n4c(-c5cccnc5N)nc5ccc(-n6cccn6)nc54)cc3CC2OC)CC1 (single isomer, unassigned) [Example 163, 1-(4-(((1R,2*)-5-(2-(2-aminopyridin-3-yl)-5-(1H-pyrazol-1-yl)-3H-imidazo[4,5-b]pyridin-3-yl)-2-methoxy-2,3-dihydro-1H-inden-1-yl)amino)piperidin-1-yl)prop-2-en-1-one]
13 | 903 | 151 | 32 | – | 398 | C=CC(=O)N1CCN(NC2CCc3cc(-n4c(-c5cccnc5N)nc5ccc(-n6cccn6)nc54)ccc32)CC1 (single isomer, unassigned) [Example 147, (*)-1-(4-((5-(2-(2-aminopyridin-3-yl)-5-(1H-pyrazol-1-yl)-3H-imidazo[4,5-b]pyridin-3-yl)-2,3-dihydro-1H-inden-1-yl)amino)piperazin-1-yl)prop-2-en-1-one]
14 | 290 | 82.3 | 18.3 | – | 270 | C=CC(=O)N1CCC(N[C@H]2CCc3cc(-n4c(-c5cccnc5N)nc5ccc(-n6cccn6)nc54)ccc32)C(C)C1 (single isomer, unassigned) [Example 101, 1-((3*,4*)-4-(((S)-5-(2-(2-aminopyridin-3-yl)-5-(1H-pyrazol-1-yl)-3H-imidazo[4,5-b]pyridin-3-yl)-2,3-dihydro-1H-inden-1-yl)amino)-3-methylpiperidin-1-yl)prop-2-en-1-one]
